Data taken from patent publication US6191118A (Taisho Pharmaceutical Co., Ltd., priority 1996, dated 2001).
In brackets after ≈: the same amount, converted by molar mass.

Experiments:
Type in all cases: cell-based
[1] = tested on: S. pneumoniae IID 553; experiment: In vitro antibacterial activity (MIC), S. pneumoniae IID 553; details: Streptococcus pneumoniae, IID553, sensitive disc media, Japan Society of Chemotherapy method, read-out: MIC (Minimum Inhibitory Concentration)
Protocol: (§1) The in vitro antibacterial activity of the compound obtained in Example 4 as an example of the compound of the present invention against various experimental bacteria was measured using sensitive disc media (produced by Eiken Chemical Co.) according to the MIC measuring method specified by the Japan Society of Chemotherapy. Clarithromycin was used as a comparative drug.

[2] = tested on: S. aureus J-109; experiment: In vitro antibacterial activity (MIC), S. aureus J-109; details: Staphylococcus aureus, J109, sensitive disc media, Japan Society of Chemotherapy method, read-out: MIC (Minimum Inhibitory Concentration)
Protocol: as §1

[3] = tested on: S. aureus B1; experiment: In vitro antibacterial activity (MIC), S. aureus B1; details: Staphylococcus aureus, sensitive disc media, Japan Society of Chemotherapy method, read-out: MIC (Minimum Inhibitory Concentration)
Protocol: as §1

[4] = tested on: S. pneumoniae BM 205; experiment: In vitro antibacterial activity (MIC), S. pneumoniae BM 205; details: Streptococcus pneumoniae, BM205, sensitive disc media, Japan Society of Chemotherapy method, read-out: MIC (Minimum Inhibitory Concentration)
Protocol: as §1

[5] = tested on: S. pneumoniae BM 210; experiment: In vitro antibacterial activity (MIC), S. pneumoniae BM 210; details: Streptococcus pneumoniae, BM210, sensitive disc media, Japan Society of Chemotherapy method, read-out: MIC (Minimum Inhibitory Concentration)
Protocol: as §1

[6] = tested on: erythromycin-resistant bacteria; experiment: Antibacterial activity against erythromycin-resistant bacteria (in words)
Protocol: as §1

[7] = tested on: S. aureus Smith; experiment: In vitro antibacterial activity (MIC), S. aureus Smith; details: Staphylococcus aureus, sensitive disc media, Japan Society of Chemotherapy method, read-out: MIC (Minimum Inhibitory Concentration)
Protocol: as §1

[8] = tested on: S. aureus 209P-JC; experiment: In vitro antibacterial activity (MIC), S. aureus 209P-JC; details: Staphylococcus aureus, sensitive disc media, Japan Society of Chemotherapy method, read-out: MIC (Minimum Inhibitory Concentration)
Protocol: as §1

[9] = tested on: erythromycin-sensitive bacteria; experiment: Antibacterial activity against erythromycin-sensitive bacteria (in words)
Protocol: as §1

Row | Structure (SMILES) | MIC [1] [µg/mL] | MIC [2] [µg/mL] | MIC [3] [µg/mL] | MIC [4] [µg/mL] | MIC [5] [µg/mL] | antibacterial activity [6] | MIC [7] [µg/mL] | MIC [8] [µg/mL] | antibacterial activity [9]
1 | CC[C@H]1OC(=O)[C@H](C)[C@@H](O[C@H]2C[C@@](C)(OC)[C@@H](O)[C@H](C)O2)[C@H](C)[C@@H](O[C@@H]2O[C@H](C)C[C@H](N(C)C)[C@H]2O)[C@](C)(OC)C[C@@H](C)C(=O)[C@H](C)[C@@H](O)[C@]1(C)O [Comparative drug, Clarithromycin, reference compound] | 0.1 (≈ 0.134 µM) | > 100 | > 100 | > 100 | 1.56 (≈ 2.09 µM) | – | – | – | –
2 | CC[C@H]1OC(=O)[C@H](C)[C@@H](OC(=O)Cc2ccccn2)[C@H](C)[C@@H](O[C@@H]2O[C@H](C)C[C@H](N(C)C)[C@H]2O)[C@](C)(OC)C[C@@H](C)C(=O)[C@H](C)[C@H]2N(CCN(C)Cc3cccnc3)C(=O)O[C@]12C [Example 4, 11-{2-[N-methyl-N-(3-pyridylmethyl)amino]ethyl}amino-11-deoxy-3-O-(2-pyridyl)acetyl-5-O-desosaminyl-6-O-methylerythronolide A 11,12-cyclic carbamate] | 0.1 (≈ 0.113 µM) | > 100 | 0.39 (≈ 0.442 µM) | 0.39 (≈ 0.442 µM) | 0.39 (≈ 0.442 µM) | strong antibacterial activity | 0.2 (≈ 0.227 µM) | 0.1 (≈ 0.113 µM) | strong antibacterial activity
